#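 These data come from cells grown in 96-well plates and exposed to compound for 48 hours at five concentrations. Abbreviation: GI50, concentration required for 50% inhibition of growth. Definition used: TGI = concentration required for complete inhibition of growth.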
# Tests used:
# Assay in all cases: NCI tumour cell line growth inhibition, 48 h
# [1] = test system: MOLT-4 leukemia
# [2] = test system: RPMI-8226 leukemia
# [3] = test system: CAKI-1 renal
# [4] = test system: HT29 colon
# [5] = test system: MALME-3M melanoma
# [6] = test system: SK-MEL-5 melanoma
# [7] = test system: UO-31 renal
# [8] = test system: IGROV1 ovarian
# [9] = test system: TK-10 renal
# [10] = test system: SW-620 colon
# [11] = test system: ACHN renal
# [12] = test system: LOX IMVI melanoma
# [13] = test system: M19-MEL melanoma
# [14] = test system: CCRF-CEM leukemia
# [15] = test system: HL-60(TB) leukemia
# [16] = test system: UACC-257 melanoma
# [17] = test system: HCT-15 colon
# [18] = test system: NCI-H23 lung
# [19] = test system: 786-0 renal
# [20] = test system: KM20L2 colon
# [21] = test system: NCI-H460 lung
# [22] = test system: HCC-2998 colon
# [23] = test system: DMS 273 small cell lung
# [24] = test system: SNB-75 CNS
# [25] = test system: DLD-1 colon
# [26] = test system: SK-MEL-28 melanoma
# [27] = test system: HOP-62 NSCLC
# [28] = test system: OVCAR-3 ovarian
# [29] = test system: SK-MEL-2 melanoma
# [30] = test system: EKVX NSCLC
# [31] = test system: SNB-78 CNS
# [32] = test system: SK-OV-3 ovarian
# [33] = test system: NCI-H226 lung
# [34] = test system: A498 renal
# [35] = test system: OVCAR-5 ovarian
# [36] = test system: KM12 colon
# [37] = test system: NCI-H522 lung
# [38] = test system: K-562 leukemia
# [39] = test system: SF-295 CNS
# [40] = test system: U251 CNS
# [41] = test system: DMS 114 small cell lung
# [42] = test system: SF-268 CNS
# [43] = test system: HOP-18 NSCLC
# [44] = test system: SNB-19 CNS
# [45] = test system: OVCAR-8 ovarian
# [46] = test system: RXF 393 renal
# [47] = test system: SN12C renal
# [48] = test system: A549 NSCLC
# [49] = test system: SF-539 CNS
# [50] = test system: COLO 205 colon
smiles,measurement,setting,value
CC(C)OP(=O)(OC(C)C)C(N(C)C)P(=O)(OC(C)C)OC(C)C.[Cl][Sn]([Cl])([Cl])[c]1ccccc1,GI50,[1],1.97 µM
same,TGI,[1],7.39 µM
same,GI50,[2],1.84 µM
same,TGI,[2],5 µM
same,GI50,[3],3.7 µM
same,TGI,[3],> 100 µM
same,GI50,[4],0.923 µM
same,TGI,[4],12.8 µM
same,GI50,[5],2.82 µM
same,TGI,[5],8.2 µM
same,GI50,[6],1.65 µM
same,TGI,[6],3.16 µM
same,GI50,[7],4.12 µM
same,TGI,[7],> 100 µM
same,GI50,[8],3.61 µM
same,TGI,[8],92.7 µM
same,GI50,[9],14.4 µM
same,TGI,[9],> 100 µM
same,GI50,[10],3.26 µM
same,TGI,[10],22.3 µM
same,GI50,[11],3.3 µM
same,TGI,[11],> 100 µM
same,GI50,[12],2.26 µM
same,TGI,[12],6.97 µM
same,GI50,[13],2.61 µM
same,TGI,[13],6.79 µM
same,GI50,[14],2.07 µM
same,TGI,[14],18.6 µM
same,GI50,[15],1.63 µM
same,TGI,[15],4.84 µM
same,GI50,[16],2.79 µM
same,TGI,[16],8.95 µM
same,GI50,[17],3.11 µM
same,TGI,[17],> 100 µM
same,GI50,[18],4.84 µM
same,TGI,[18],31.3 µM
same,GI50,[19],2.84 µM
same,TGI,[19],12.3 µM
same,GI50,[20],2.32 µM
same,TGI,[20],15.8 µM
same,GI50,[21],2.15 µM
same,TGI,[21],29.6 µM
same,GI50,[22],1.79 µM
same,TGI,[22],7.46 µM
same,GI50,[23],2.67 µM
same,TGI,[23],10.6 µM
same,GI50,[24],4.01 µM
same,TGI,[24],39.5 µM
same,GI50,[25],2.89 µM
same,TGI,[25],> 100 µM
same,GI50,[26],5.01 µM
same,TGI,[26],75.4 µM
same,GI50,[27],2.08 µM
same,TGI,[27],7.34 µM
same,GI50,[28],5.64 µM
same,TGI,[28],53 µM
same,GI50,[29],2.15 µM
same,TGI,[29],5.3 µM
same,GI50,[30],3.49 µM
same,TGI,[30],52.5 µM
same,GI50,[31],8.01 µM
same,TGI,[31],> 100 µM
same,GI50,[32],3.67 µM
same,TGI,[32],17.3 µM
same,GI50,[33],2.05 µM
same,TGI,[33],9.69 µM
same,GI50,[34],14.2 µM
same,TGI,[34],89.8 µM
same,GI50,[35],4.37 µM
same,TGI,[35],49.1 µM
same,GI50,[36],3.6 µM
same,TGI,[36],> 100 µM
same,GI50,[37],3.02 µM
same,TGI,[37],9.78 µM
same,GI50,[38],2.26 µM
same,TGI,[38],5.62 µM
same,GI50,[39],4.15 µM
same,TGI,[39],9.98 µM
same,GI50,[40],4.47 µM
same,TGI,[40],> 100 µM
same,GI50,[41],3.68 µM
same,TGI,[41],23.1 µM
same,GI50,[42],2.9 µM
same,TGI,[42],31.7 µM
same,GI50,[43],> 100 µM
same,TGI,[43],> 100 µM
same,GI50,[44],17.8 µM
same,TGI,[44],> 100 µM
same,GI50,[45],3.16 µM
same,TGI,[45],13.2 µM
same,GI50,[46],2.81 µM
same,TGI,[46],11.4 µM
same,GI50,[47],4.13 µM
same,TGI,[47],> 100 µM
same,GI50,[48],2.21 µM
same,TGI,[48],5.28 µM
same,GI50,[49],3.46 µM
same,TGI,[49],15.1 µM
same,GI50,[50],2.1 µM
same,TGI,[50],12.5 µM
